Measurements taken from patent publication US12172959B2, “Mono- or di-substituted indole derivatives as dengue viral replication inhibitors” (priority 2015, dated 2024).

Columns and labels:
[1] = system: Vero cells; conditions: African green monkey
[2] = system: DENV-2 16681 strain; test: DENV-2 antiviral assay (eGFP fluorescence, Vero cells); type: cell-based, Dengue virus; conditions: DENV-2 16681 eGFP, MOI 0.5, 3 days
Method: The antiviral activity of all the compounds of the invention was tested against the DENV-2 16681 strain which was labeled with enhanced green fluorescent protein (eGPF; Table 1). The culture medium consists of minimal essential medium supplemented with 2% of heat-inactivated fetal calf serum, 0.04% gentamycin (50 mg/mL) and 2 mM of L-glutamine. Vero cells, obtained from ECACC, were suspended in culture medium and 25 μL was added to 384-well plates (2500 cells/well), which already contain the antiviral compounds. Typically, these plates contain a 5-fold serial dilution of 9 dilution steps of the test compound at 200 times the final concentration in 100% DMSO (200 nL). […] Finally, each plate contains wells which are assigned as virus controls (containing cells and virus in the absence of compound), cell controls (containing cells in the absence of virus and compound) and medium controls (containing medium in the absence of cells, virus and compounds). To the wells assigned as medium control, 25 μL of culture medium was added instead of Vero cells. Once the cells were added to the plates, the plates were incubated for 30 minutes at room temperature to allow the cells to distribute evenly within the wells. Next, the plates were incubated in a fully humidified incubator (37° C., 5% CO2) until the next day. Then, DENV-2 strain 16681, labeled with eGFP, was added at a multiplicity of infection (MOI) of 0.5. Therefore, 15 μL of virus suspension was added to all the wells containing test compound and to the wells assigned as virus control. In parallel, 15 μL of culture medium was added to the medium and cell controls. Next, the plates were incubated for 3 days in a fully humidified incubator (37° C., 5% CO2). At the day of the read out, the eGFP fluorescence was measured using an automated fluorescence microscope at 488 nm (blue laser). Using an in-house LIMS system, inhibition dose response curves for each compound were calculated and the half maximal effective concentration (EC50) was determined. Therefore, the percent inhibition (I) for every test concentration is calculated using the following formula: I=100*(ST−SCC)/(SVC−SCC); ST, SCC and SVC are the amount of eGFP signal in the test compound, cell control and virus control wells, respectively. The EC50 represents the concentration of a compound at which the virus replication is inhibited with 50%, as measured by a 50% reduction of the eGFP fluorescent intensity compared to the virus control. The EC50 is calculated using linear interpolation.

[3] = system: DENV-4 strain H241; test: Tetravalent RT-qPCR assay Protocol A, serotype 4 H241; type: cell-based; conditions: Dengue virus, DENV4, 72 h; Protocol A, RT-qPCR serotype 4 H241, Vero cells, day 3; read-out: EC50
Method: (§1) The antiviral activity of the compounds of the invention was tested against DENV-1 strain TC974#666 (NCPV; Table 6), DENV-2 strain 16681 (Table 7), DENV-3 strain H87 (NCPV; Table 8) and DENV-4 strains H241 (NCPV; Table 9A) and SG/06K2270DK1/2005 (Eden; Table 9B) in a RT-qPCR assay. Therefore, Vero cells were infected with either DENV-1, or -2, or -3, or -4 in the presence or absence of test compounds. At day 3 post-infection, the cells were lysed and cell lysates were used to prepare cDNA of both a viral target (the 3′UTR of DENV; Table 2) and a cellular reference gene (β-actin, Table 2). Subsequently, a duplex real time PCR was performed on a Lightcycler480 instrument. The generated Cp value is inversely proportional to the amount of RNA expression of these targets. Inhibition of DENV replication by test compound results in a shift of Cp's for the 3′UTR gene. On the other hand, if a test compound is toxic to the cells, a similar effect on β-actin expression will be observed. The comparative ΔΔCp method is used to calculate EC50, which is based on the relative gene expression of the target gene (3′UTR) normalized with the cellular housekeeping gene (β-actin).
(§2) The culture medium consisted of minimal essential medium supplemented with 2% of heat-inactivated fetal calf serum, 0.04% gentamycin (50 mg/mL) and 2 mM of L-glutamine. Vero cells, obtained from ECACC, were suspended in culture medium and 75 μL/well was added in 96-well plates (10000 cells/well), which already contain the antiviral compounds. […] In addition, each plate contains wells which are assigned as virus controls (containing cells and virus in the absence of compound) and cell controls (containing cells in the absence of virus and compound). Once the cells were added in the plates, the plates were incubated in a fully humidified incubator (37° C., 5% CO2) until the next day. Dengue viruses serotype-1, 2, 3 and 4 were diluted in order to obtain a Cp of ˜22-24 in the assay. Therefore, 25 μL of virus suspension was added to all the wells containing test compound and to the wells assigned as virus control. In parallel, 25 μL of culture medium was added to the cell controls. Next, the plates were incubated for 3 days in a fully humidified incubator (37° C., 5% CO2). After 3 days, the supernatant was removed from the wells and the cells were washed twice with ice-cold PBS (˜100 μL). The cell pellets within the 96-well plates were stored at −80° C. for at least 1 day. Next, RNA was extracted using the Cells-to-CT™ lysis kit, according to the manufacturer's guideline (Life Technologies). The cell lysates can be stored at −80° C. or immediately used in the reverse transcription step.
(§3) In preparation of the reverse transcription step, mix A (table 3A) was prepared and 7.57 μL/well was dispensed in a 96-well plate. After addition of 5 μL of the cell lysates, a five minute denaturation step at 75° C. was performed (table 3B). Afterwards, 7.43 μL of mix B was added (table 3C) and the reverse transcription step was initiated (table 3D) to generate cDNA.
(§4) Finally, a RT-qPCR mix was prepared, mix C (table 4A), and 22.02 μL/well was dispensed in 96-well LightCycler qPCR plates to which 3 μL of cDNA was added and the qPCR was performed according to the conditions in table 4B on a LightCycler 480.
(§5) Using the LightCycler software and an in-house LIMS system, dose response curves for each compound were calculated and the half maximal effective concentration (EC50) and the half maximal cytotoxic concentration (CC50) were determined.

[4] = in vitro; type: cell-based; conditions: African green monkey, CC50
Method: as §1, §2, §5

[5] = system: DENV-3 strain H87; test: Tetravalent RT-qPCR assay Protocol A, serotype 3; type: cell-based; conditions: Dengue virus, DENV3, 72 h, RT-qPCR serotype 3 H87, Vero cells, day 3
Method: as §1, §2, §3, §4, §5

[6] = system: DENV-1 strain TC974#666; test: Tetravalent RT-qPCR assay Protocol A, serotype 1; type: cell-based; conditions: Dengue virus, DENV1, 72 h, RT-qPCR serotype 1 TC974#666, Vero cells, day 3
Method: as §1, §2, §3, §4, §5

[7] = system: DENV-2 strain 16681; test: Tetravalent RT-qPCR assay Protocol A, serotype 2; type: cell-based; conditions: Dengue virus, DENV2, 72 h; Protocol A, RT-qPCR serotype 2 16681, Vero cells, day 3; read-out: EC50
Method: as §1, §2, §3, §4, §5

Work on COc1cc(NC(C(=O)c2c[nH]c3cc(F)ccc23)c2ccc(Cl)cc2OC)cc(S(C)(=O)=O)c1 (racemic) [Compound 1, 2-(4-chloro-2-methoxyphenyl)-1-(6-fluoro-1H-indol-3-yl)-2-((3-methoxy-5-(methylsulfonyl)phenyl)amino)ethanone] yielded a CC50 [1] of 5500 nM and an EC50 ([2]; Dengue virus, DENV2, Vero, 72 h) of 0.52 nM.
For COc1cc(NC(C(=O)c2c[nH]c3cc(F)ccc23)c2ccc(Cl)cc2OC)cc(S(C)(=O)=O)c1 (single isomer, unassigned) [Compound 1B, 2-(4-chloro-2-methoxyphenyl)-1-(6-fluoro-1H-indol-3-yl)-2-((3-methoxy-5-(methylsulfonyl)phenyl)amino)ethanone], the CC50 [1] was 6500 nM and the EC50 [2] was 12 nM.
Molecule COc1cc(NC(C(=O)c2c[nH]c3c(C)c(F)ccc23)c2ccc(Cl)cc2OC)cc(S(C)(=O)=O)c1 (single isomer, unassigned) [Compound 2B, 2-(4-chloro-2-methoxyphenyl)-1-(6-fluoro-7-methyl-1H-indol-3-yl)-2-((3-methoxy-5-(methylsulfonyl)phenyl)amino)ethanone] has a CC50 [1] of 7400 nM and an EC50 [2] of 26 nM.
Molecule COc1cc(NC(C(=O)c2c[nH]c3cc(OC)ccc23)c2ccc(Cl)cc2OC)cc(S(C)(=O)=O)c1 (single isomer, unassigned) [Compound 3B, 2-(4-chloro-2-methoxyphenyl)-1-(6-methoxy-1H-indol-3-yl)-2-((3-methoxy-5-(methylsulfonyl)phenyl)amino)ethanone] has a CC50 [1] of over 9700 nM and an EC50 [2] of 3.8 nM.
For COc1cc(NC(C(=O)c2c[nH]c3cc(OC)c(C)cc23)c2ccc(Cl)cc2OC)cc(S(C)(=O)=O)c1 (single isomer, unassigned) [Compound 4B, 2-(4-chloro-2-methoxyphenyl)-2-((3-methoxy-5-(methyl-sulfonyl)phenyl)amino)-1-(6-methoxy-5-methyl-1H-indol-3-yl)ethanone], the CC50 [1] was 12000 nM and the EC50 [2] was 36 nM.
With COc1cc(NC(C(=O)c2c[nH]c3cc(OC)c(F)cc23)c2ccc(Cl)cc2OC)cc(S(C)(=O)=O)c1 (single isomer, unassigned) [Compound 5B, 2-(4-chloro-2-methoxyphenyl)-1-(5-fluoro-6-methoxy-1H-indol-3-yl)-2-((3-methoxy-5-(methylsulfonyl)phenyl)amino)ethanone] the CC50 [1] was 13000 nM and the EC50 [2] was 68 nM.
In the case of COc1cc(NC(C(=O)c2c[nH]c3c(C)c(OC)ccc23)c2ccc(Cl)cc2OC)cc(S(C)(=O)=O)c1 (single isomer, unassigned) [Compound 6B, 2-(4-chloro-2-methoxyphenyl)-2-((3-methoxy-5-(methyl-sulfonyl)phenyl)amino)-1-(6-methoxy-7-methyl-1H-indol-3-yl)ethanone], the CC50 [1] is reported as 11000 nM and the EC50 [2] is reported as 19 nM.
In the case of COc1cc(NC(C(=O)c2c[nH]c3cc(F)c(C)cc23)c2ccc(Cl)cc2OC)cc(S(C)(=O)=O)c1 (single isomer, unassigned) [Compound 7A, 2-(4-chloro-2-methoxyphenyl)-1-(6-fluoro-5-methyl-1H-indol-3-yl)-2-((3-methoxy-5-(methylsulfonyl)phenyl)amino)ethanone], the CC50 [1] is reported as 6800 nM and the EC50 [2] is reported as 13 nM.
Work on COc1cc(NC(C(=O)c2c[nH]c3cc(F)c(C)cc23)c2ccc(Cl)cc2OC)cc(S(C)(=O)=O)c1 (single isomer, unassigned) [Compound 7B, 2-(4-chloro-2-methoxyphenyl)-1-(6-fluoro-5-methyl-1H-indol-3-yl)-2-((3-methoxy-5-(methylsulfonyl)phenyl)amino)ethanone] yielded an EC50 [3] of 44 nM, a CC50 [1] of 3200 nM and a CC50 at 3 days [4] of 2200 nM. It also gave an EC50 [2] of 0.2 nM, an EC50 [5] of 7.8 nM and an EC50 [6] of 0.4 nM. For the same molecule, the EC50 [7] was 0.17 nM.
With COc1cc(NC(C(=O)c2c[nH]c3ccc(C(F)(F)F)cc23)c2ccc(Cl)cc2OC)cc(S(C)(=O)=O)c1 (single isomer, unassigned) [Compound 8A, 2-(4-chloro-2-methoxyphenyl)-2-((3-methoxy-5-(methyl-sulfonyl)phenyl)amino)-1-(5-(trifluoromethyl)-1H-indol-3-yl)ethanone] the CC50 [1] was 7400 nM and the EC50 [2] was 3 nM.
COc1cc(NC(C(=O)c2c[nH]c3ccc(OC(F)(F)F)cc23)c2ccc(Cl)cc2OC)cc(S(C)(=O)=O)c1 (single isomer, unassigned) [Compound 9B, 2-(4-chloro-2-methoxyphenyl)-2-((3-methoxy-5-(methyl-sulfonyl)phenyl)amino)-1-(5-(trifluoromethoxy)-1H-indol-3-yl)ethanone] gave a CC50 [1] of 6200 nM and an EC50 [2] of 3.8 nM.
COc1cc(NC(C(=O)c2c[nH]c3cc(OC)c(OC(F)(F)F)cc23)c2ccc(Cl)cc2OC)cc(S(C)(=O)=O)c1 (single isomer, unassigned) [Compound 10B, 2-(4-chloro-2-methoxyphenyl)-2-((3-methoxy-5-(methylsulfonyl)phenyl)amino)-1-(6-methoxy-5-(trifluoromethoxy)-1H-indol-3-yl)ethanone] showed a CC50 [1] of 9800 nM and an EC50 [2] of 3.9 nM.
Molecule COc1cc(NC(C(=O)c2c[nH]c3c(C)cc(OC(F)(F)F)cc23)c2ccc(Cl)cc2OC)cc(S(C)(=O)=O)c1 (single isomer, unassigned) [Compound 11B, 2-(4-chloro-2-methoxyphenyl)-2-((3-methoxy-5-(methylsulfonyl)phenyl)amino)-1-(7-methyl-5-(trifluoromethoxy)-1H-indol-3-yl)ethanone] has a CC50 [1] of 9200 nM and an EC50 [2] of 4.1 nM.
